Laboratory results: patent US20070010671A1, “Novel quinazoline derivatives and methods of treatment related to the use thereof” (priority 2003, published 2007)

The molecules below were run against MCH receptor (Homo sapiens, UniProt Q99705) (assay: High throughput functional screening FLIPR/FDSS6000: inhibition of MCH-evoked intracellular Ca2+ changes). Conditions: class by percent of control at 10^-7 M or IC50.
Format: cell-based
Outline: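 Seed cells the day before, then load them with Fluo4-AM for one hour at 37° C and wash in HEPES-buffered HBSS, pH 7.4. Add compound for 3 min, then stimulate with 50 nM MCH. Monitor the calcium transient for 290 s.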

Row | Molecule | class
1 | C[C@@H](NC(=S)N[C@H]1CC[C@@H](Nc2nc(N(C)C)c3ccccc3n2)CC1)c1ccccc1 [compound 329, N-(cis-4-{[4-(dimethylamino)quinazolin-2-yl]amino}cyclohexyl)-N′-[(1R)-1-phenylethyl]thiourea] | 1 (Class 1: The value of percent of control at 10^−7 M was less than 40% or the value of IC50 was less than 50 nM.)
2 | CN(C)c1nc(N[C@H]2CC[C@@H](CNC(=S)NCc3ccc(Cl)c(Cl)c3)CC2)nc2ccccc12 [compound 682] | 3 (Class 3: The value of percent of control at 10^−7 M was more than 60% or the value of IC50 was more than 200 nM.)
3 | N-[(cis-4-{[4-(dimethylamino)quinazolin-2-yl]amino}cyclohexyl)methyl]-N′-(2,4,6-tribromophenyl)urea [compound 475] | 1 (Class 1: The value of percent of control at 10^−7 M was less than 40% or the value of IC50 was less than 50 nM.)
4 | CCOC(=O)[C@H](CC(C)C)NC(=O)NC[C@H]1CC[C@@H](Nc2nc(N(C)C)c3ccccc3n2)CC1 (relative stereo) [compound 435, ethyl N-({[(cis-4-{[4-(dimethylamino)quinazolin-2-yl]amino}cyclohexyl)methyl]amino}carbonyl)leucinate] | 1 (Class 1: The value of percent of control at 10^−7 M was less than 40% or the value of IC50 was less than 50 nM.)
5 | Cc1cccc(Cl)c1NC(=O)NC[C@H]1CC[C@@H](Nc2nc(N(C)C)c3ccccc3n2)CC1 [compound 489] | 1 (Class 1: The value of percent of control at 10^−7 M was less than 40% or the value of IC50 was less than 50 nM.)
6 | Cc1ccccc1CNC(=S)NC[C@H]1CC[C@@H](Nc2nc(N(C)C)c3ccccc3n2)CC1 [compound 727] | 3 (Class 3: The value of percent of control at 10^−7 M was more than 60% or the value of IC50 was more than 200 nM.)
7 | COc1ccc(NC(=O)NC[C@H]2CC[C@@H](Nc3nc(N(C)C)c4ccccc4n3)CC2)c([N+](=O)[O-])c1 [compound 557] | 3 (Class 3: The value of percent of control at 10^−7 M was more than 60% or the value of IC50 was more than 200 nM.)

Same assay, conditions: class by percent of control at 10^-7 M or by IC50; read-out: class

Row | IC50 | Molecule
8 | 50 to 200 nM | CN(C)c1nc(N[C@H]2CC[C@@H](CNC(=S)NC3CC4C=CC3C4)CC2)nc2ccccc12 (relative stereo) [compound 799, N-bicyclo[2.2.1]hept-5-en-2-yl-N′-[(cis-4-{[4-(dimethylamino)quinazolin-2-yl]amino}cyclohexyl)methyl]thiourea]

Same assay, conditions: class by percent of control at 10^−7 M or by IC50; read-out: class

Row | IC50 | Molecule
9 | < 50 nM | CN(C)c1nc(N[C@H]2CC[C@@H](NC(=O)CNc3ccc(Cl)cc3)CC2)nc2ccccc12 [Example 1089, N2-(4-chlorophenyl)-N-(cis-4-{[4-(dimethylamino)quinazolin-2-yl]amino}cyclohexyl)glycinamide]
10 | < 50 nM | CN(C)c1nc(N[C@H]2CC[C@@H](CNC(=O)c3cccc(Cl)c3)C2)nc2ccccc12 [Example 1122, 3-chloro-N-[((1R,3S)-3-{[4-(dimethylamino)quinazolin-2-yl]amino}cyclopentyl)methyl]benzamide]
11 | 50 to 200 nM | CN(C)c1nc(N[C@H]2CC[C@@H](C(=O)NCc3cccc(I)c3)CC2)nc2cc(F)c(F)cc12 [Example 1006, cis-4-{[4-(dimethylamino)-6,7-difluoroquinazolin-2-yl]amino}-N-(3-iodobenzyl)cyclohexanecarboxamide]
12 | > 200 nM | CN(C)c1nc(N[C@H]2CC[C@@H](CNC(=O)[C@@H](O)c3ccccc3)CC2)nc2ccccc12 [Example 1103, (2S)-N-[(cis-4-{[4-(dimethylamino)quinazolin-2-yl]amino}cyclohexyl)methyl]-2-hydroxy-2-phenylacetamide]
